“Also recorded” adds a separate entry of the source.
Experiments:
Assay type in all cases: in vivo, mouse
KPC pancreatic tumors = test: Monitoring of KPC pancreatic tumor volume by 3D high resolution ultrasonography; settings: gemcitabine 100 mg/kg twice weekly, Compound A 40 ug/kg/day, or both
Source text: For survival studies, mice were enrolled following the detection of 5-10 mm diameter tumor by ultrasound. Tumors were quantified by 3D ultrasound twice weekly until endpoint. High resolution ultrasound (US) imaging of normal and diseased mouse pancreas using the Vevo 770 System with a 35 MHz RMV scanhead (Visual Sonics, Inc.). 3D images were produced using the 3D motor arm to collect serial images at 0.25 mm intervals through the thickness of the tumor. Tumors were outlined on each 2D image and reconstructed to quantify the 3D volume using the integrated Vevo 770 software package.

[1] = test system: pancreatic tumors in KPC mice; test: Survival study of tumor-bearing KPC mice; settings: KPC mice enrolled with 5-10 mm tumors
Experimental: vehicles: 20 μL/g 0.85% NaCl+8 μL/g 5% HPBCD;
Compound A: 40 mg/kg Compound A+20 μL/g 0.85% NaCl;
For survival studies, mice were enrolled following the detection of 5-10 mm diameter tumor by ultrasound. Tumors were quantified by 3D ultrasound twice weekly until endpoint.

Gli1 = Gli1 expression in KPC tumors by quantitative real-time PCR; settings: 40 mg/kg Compound A oral, treated for 4 days, vs control
Experimental: KPC mice harboring pancreatic tumors were treated with 40 mg/kg of Compound A by oral gavage, either singly, once daily for four days or at as part of a survival study. […] Six hours following the final dose, tissue samples were harvested, snap frozen in liquid nitrogen and stored at −80° C. Mice with abdominal ascites were excluded from analysis. Samples were analyzed by LC/MS, as described below.
RNA was isolated from tissues using the RNeasy kit (Qiagen). cDNA was synthesized from 1-2 ug of RNA using the AffinityScript QPCR cDNA Synthesis Kit (Stratagene). cDNA was analyzed by quantitative real-time PCR on a 7900HT Real-Time PCR system using relative quantification (ΔΔct) with the taqman gene expression assays (Applied Biosystems) (Table 7). Experiment was performed on 5 KPC tumors and 7 syngeneic tumors derived from K8484 or K8675 cells.

KPC tumors [2] = test: Doxorubicin delivery to treated KPC tumors (doxorubicin fluorescence, laser scanning cytometry); settings: KPC tumors after 8-12 days of treatment; doxorubicin 20 mg/kg infused
Experimental: To assess the functional vasculature, biotin-conjugated Lycopersicon esculentum lectin (B1175-1 mg, Vector Laboratories) was resuspended in 425 μL PBS and mixed with 75 μL of 1 mg/mL Streptavidin-AlexaFluor 633 (S21375, Molecular Probes) (in sterile PBS). Prior to use, the lectin-avidin mixture was centrifuged 14,000 k on a microfuge for 10 minutes to remove any particulate. Fifteen minutes prior to euthanasia, 100 μl (0.4 mg total) of the conjugated lectin was administered as a slow intravenous infusion over 5 minutes, and the hemodynamics monitored closely to ensure that it was tolerated. […]
Mice were perfused with 4% paraformaldehyde in PBS, pH 7.4, while under terminal anesthesia. […] Doxorubicin fluorescence was determined by quantitative imaging cytometry using the iCys Research Imaging Cytometer (CompuCyte, Cambridge, Mass.) with iNovator software (CompuCyte).
A scanning protocol for quantification was configured with two channels. Nuclear DAPI fluorescence was excited by the 405 nm diode laser and detected in the blue ([…]) channel and doxorubicin fluorescence was excited by the argon […] laser and detected in the orange ([…]) channel. The threshold in the DAPI channel was optimised to selectively contour individual cells allowing fluorescence measurement within the primary and peripheral nuclear contours. […]

[3] = 19F NMR of fluorinated gemcitabine metabolites in tissue; settings: KPC tumors; 10 days of treatment; vs untreated tumors
Experimental: Mice were treated with indicated regiments for 12 days. […] Tissues were rapidly dissected and snap frozen in liquid nitrogen. Tissue specimens were maintained at −80° C. until subjected to nucleotide extraction. Samples were homogenized in a Qiagen TissueLyser with a 5 mm ball bearing for 2×6 minutes at 25 KHz, in the presence of 4 volumes of ice-cold acetonitrile (μL acetonitrile=4×[…] of tissue). An equal volume of water was added and then the sample was spun at 14,000 rpm for 10 minutes at 4° C. Supernatant was freeze dried, resuspended in 600 μL of D2O and transferred to a 5 mm standard NMR tube (Wilmad) for ^19F NMR analysis on a Bruker 600 MHZ (14.1T) Avance NMR spectrometer using a QNP probe. Acquisition parameters included a 1D pulse sequence of ^19F observation and inverse-gated ^1H decoupling, spectral sweep width of 177 ppm (100000 Hz), 4096 scans and 1.65 sec of repetition time. Total acquisition time for each sample was about 1 hr 55 min. Trichloro-fluoro-methane was used for ^19F NMR chemical shift calibrations. A broad hump observed in the baseline of ^19F NMR spectra was removed by application of Linear-prediction (LP) back projection to the time domain data by using 2000 (number of LP) coefficients and 128 back-prediction points prior to Fourier transformation and phase correction. […]

KPC tumors [4] = test: Proliferation of KPC tumors (phospho-histone H3 immunohistochemistry); settings: 4 days or 8-12 days of treatment
Experimental: Tissues were fixed in 10% formalin solution for 24 hours and transferred to 70% ethanol. Tissues were paraffin embedded, sectioned and rehydrated. For CD31 IHC, sections were unmasked in 10 mM EDTA, pH 8.0 in a pressure cooker. For all other antibodies, sections were unmasked in 10 mM citric acid in a pressure cooker. Endogenous peroxidases were quenched in 3% H2O2/PBS for 20 minutes. Remaining steps were carried out with Vectastain ABC kits appropriate to the species of primary antibody (Vector Labs, Burlingame, Calif.) with the following modification: blocking serum was supplemented with Protein Blocking Agent (Immunotech/BeckmanCoulter, Fullerton, Calif.) diluted 1:50. Antigens were developed with DAB Peroxidase Substrate (Vector Labs). The following antibody dilutions were used: Phospho-Histone H3, 1:100 (#9701, Cell Signaling Technology); Cleaved Caspase 3, 1:100 (#9661, Cell Signaling Technology); CD31, 1:75 (SC-1506). Slides were counterstained with hematoxylin.

KPC tumors [5] = test: Histology (H&E) of treated KPC tumors; settings: KPC tumors after 8-12 days of treatment

## CC1=C2C[C@H]3[C@@H](CC[C@@H]4C[C@H](NS(C)(=O)=O)CC[C@@]43C)[C@@H]2CC[C@@]2(C1)O[C@@H]1C[C@H](C)CN[C@H]1[C@H]2C.Cl [Compound A]
KPC pancreatic tumors
  objective (ultrasonographic) response, responding mice/treated mice: 2/10
[1]
  effect on survival of KPC mice: Neither gemcitabine nor Compound A treatment had an effect on the survival
Gli1
  Gli1 expression: significant decrease; also recorded: significantly lower
KPC tumors [2]
  doxorubicin delivery to tumor tissue (fluorescence per unit area): evident but more variable; also recorded: increased content
[3]
  concentration of gemcitabine metabolites in KPC tumor tissue: No difference
KPC tumors [4]
  proliferation of KPC tumors: little appreciable effect; also recorded: unchanged
KPC tumors [5]
  tumor stroma / histological pattern: dramatically altered histological patterns; also recorded: loss of cellular and acellular stroma

Source: patent US20120020876A1, “HEDGEHOG PATHWAY INHIBITORS” (priority 2009, published 2012)
